How the values were obtained:
[1] = tested on: reserpine repeated administration-induced muscle pressure pain threshold value reduction; test: Effects of drugs on reserpine repeated administration-induced reduction of muscle pressure pain threshold value; format: in vivo, rat; conditions: for effect on reserpine repeated administration-induced muscle pressure pain threshold value reduction / dose at which the effect was statistically significant by the index of muscle pressure pain threshold value: male rats, pregabalin, duloxetine, diclofenac oral, pramipexole subcutaneous; for effect on reserpine repeated administration-induced muscle pressure pain threshold value reduction: 5 days after final reserpine (1 mg/kg s.c. x 3 days), 30-240 min after drug; for dose at which the effect was statistically significant by the index of muscle pressure pain threshold value: 5 days after final reserpine, two-way analysis of variance and Bonferroni; for efficacy on this disease animal model (reserpine-treated mammal): summary statement, chronic muscle pain and tactile allodynia model
Description: Male Sprague-Dawley rats (Japan SLC, Hamamatsu, Japan) were used as the animal. A total of 30 rats were used for each drug. As shown in Example 1, 1 mg/kg of reserpine was repeatedly administered subcutaneously on the back of 24 rats once a day for 3 days to induce reduction of the muscle pressure pain threshold value and skin pain sensation threshold value. The other 6 rats were subjected to the test as a healthy control group without carrying out the reserpine treatment.
All of the evaluations of drug effects were carried out 5 days after the final administration of reserpine.
On the day of drug effect evaluation (5 days after the final administration of reserpine), the muscle pressure pain threshold value and skin pain sensation threshold value were firstly measured on all of the rats (24 reserpine-treated rats and 6 healthy rats). The 24 reserpine-treated rats were divided into 4 groups based on the doses of the test drug, and the muscle pressure pain threshold value and skin pain sensation threshold value were measured after 30, 60, 120 or 240 minutes of the drug or solvent administration. On the 6 healthy rats, the drug administration was not carried out, but only the measurement of muscle pressure pain threshold value and skin pain sensation threshold value was carried out.
All of the measured values were expressed as average value±standard error. Statistical significance test of the measured values between the test drug administration groups and the solvent administration group at each point of time was carried out by a two-way analysis of variance and the Bonferroni method. Probability value (P) of less than 5% was judged as statistically significant (P<0.05 was expressed as * in the graphs).

[2] = tested on: reserpine repeated administration-induced skin pain sensation threshold value reduction; test: Effects of drugs on reserpine repeated administration-induced reduction of skin pain sensation threshold value; format: in vivo, rat; conditions: male rats, pregabalin, diclofenac oral, pramipexole subcutaneous; for effect on reserpine repeated administration-induced skin pain sensation threshold value reduction: 5 days after final reserpine (1 mg/kg s.c. x 3 days), 30-240 min after drug, duloxetine; for dose at which the effect was statistically significant by the index of skin pain sensation threshold value: 5 days after final reserpine, two-way analysis of variance and Bonferroni
fibromyalgia patients = conditions: cited from earlier work; for pain symptom score of fibromyalgia patients in comparison with the placebo group: Non-patent References 7 to 9; for effect in the treatment of fibromyalgia patients (clinical trial): literature clinical trials

Structure (SMILES)	effect on reserpine repeated administration-induced muscle pressure pain threshold value reduction [1]	dose at which the effect was statistically significant by the index of muscle pressure pain threshold value [1] [mg/kg]	efficacy on this disease animal model (reserpine-treated mammal) [1]	effect on reserpine repeated administration-induced skin pain sensation threshold value reduction [2]	dose at which the effect was statistically significant by the index of skin pain sensation threshold value [2] [mg/kg]	pain symptom score of fibromyalgia patients in comparison with the placebo group (fibromyalgia patients)	effect in the treatment of fibromyalgia patients (clinical trial) (fibromyalgia patients)
O=C(O)Cc1ccccc1Nc1c(Cl)cccc1Cl [diclofenac]	did not recover	> 10	not effective	did not recover	> 10	–	–
CNCC[C@H](Oc1cccc2ccccc12)c1cccs1 [duloxetine]	statistically significantly recovered	30	effective	showed a tendency to recover the reserpine repeated administration-induced skin pain sensation pain threshold value reduction but was not statistically significant	–	alleviates the pain symptom score of fibromyalgia patients statistically significantly	usefulness has been proved
CC(C)Cc1ccc(C(C)C(=O)O)cc1 (stereo not shown) [ibuprofen]	–	–	–	–	–	–	do not have a significant effect
COc1ccc2cc([C@H](C)C(=O)O)ccc2c1 [naproxen]	–	–	–	–	–	–	do not have a significant effect
CC(C)C[C@H](CN)CC(=O)O [pregabalin]	dose-dependently recovered	–	effective	dose-dependently recovered	30	alleviates the pain symptom score of fibromyalgia patients statistically significantly	usefulness has been proved
